US20020028790A1, “Use of agonists or antagonists of P2 purinoceptors for the prevention glutamate-evoked cytotoxicity” (priority 1995, published 2002)

Legend:
[1] = system: cerebellar granule neurons; assay: Glutamate-evoked cytotoxicity in cerebellar granule primary cultures (cell survival by count of intact viable nuclei); type: cell-based; details: for cellular survival / abolition of the cytotoxic action of glutamate: 100 μM compound in the simultaneous presence of 100 μM glutamate (acute exposure); for total neuronal population protected from cell death: incubated for the next 20 hours
From the text: Always according to the present invention, these compounds are used to prevent glutamate-evoked cytotoxicity in the nervous system's cells, particularly in CNS neurons. As a cellular model system for CNS neurons we have adopted postnatal rat cerebellar neurons. These cells, which are among the best characterized primary neuronal cultures, when isolated from postnatal rat cerebellum (Lasher R. S., and Zagon I. S., Brain Res. 41, 428-438, 1972), develop in vitro their mature phenotype as interneurons which use glutamate as a neurotransmitter and furthermore constitute an excellent model system for the study of glutamate-mediated cytotoxicity.
By exposing granule neurons to 100 μM glutamate for 15-30 min is obtained (after 15-20 hours) 80-100% of total cell death. […] The effects of basilen blue on cerebellar granule cell morphology reveal, despite the exposure to glutamate, which otherwise induces complete cell death, apparently healty-looking cell bodies that do bear a dense network of highly branching processes. Adhesion and neurites fasciculation are also preserved by basilen blue.
Basilen Blue prevents cytotoxicity induced by glutamate in cerebellar granule primary cultures: effects of dose-response and modality of addition. Replicate cerebellar granule cultures at 8 DIV were exposed for 25 min to 100 μM glutamate, in the simultaneous presence of different concentrations of basilen blue (FIG. 1). After 20 hours, the cultures were assessed for cultures were assessed for cell survival by direct count of intact viable nuclei. The asterisk represents the % of nuclei obtained after simultaneous addition to the cells of 100 μM glutamate and 100 μM caffeine. In FIG. 2, replicate cerebellar granule cultures at 8 DIV were exposed for 25 min to 100 μM glutamate. At different time after glutamate withdrawl, basilen blue (100 μM) was added to the medium until the cultures, 20 hours later, were assessed for cell survival by direct count of intact viable nuclei. The asterisk represents the % of nuclei obtained after simultaneous addition to the cells of 100 μM glutamate and 100 μM basilen blue. In FIG. 3, replicate cultures were pretreated in the presence of 100 μM basilen blue for different time, before the addition of 100 μM glutamate for 25 min (performed in the absence of basilen blue). After 20 hours the cultures were assessed for cell survival.
The asterisk represents the % of nuclei obtained after simultaneous addition to the cells of 100 μM glutamate and 100 μM basilen blue. Counts represent means±SEM (n=4) and 100% of cell survival represents 1.75−2×10^6 total cells.
METHODS. Approximately 20 hours after exposure of granule cells to glutamate, the culture medium was removed and replaced with 1 ml of a detergent-containing lysing solution (0.5% ethyl hexadecyl dimethyl—ammonium bromide, 0.28% acetic acid, 0.5% Triton X-100, 3 mM NaCl, 2 mM MgCl2, in PBS pH 7.4 diluted 1/10).
After 1-2 minutes, the cells were triturated a few times, providing a uniform uspension of single, intact viable nuclei. The latter were quantified by ounting in a hemacytometer. Broken or damaged nuclei were not included in the counts.
Culturing cerebellar granule cells in the presence of AMPPNP: modulation of glutamate-dependent cell death, Ca^++ uptake and aspartate release. Primary cerebellar granule cultures were prepared and starting at 1 DIV some of time were daily supplemented with 100 μM AMPPNP.(FIG. 6) At 8 DIV, after two washes, some of the cultures were incubated at 20° C. for 25 min with 100 μM glutamate. The following day, they were assessed for cell survival, as previously described.

[2] = system: cerebellar granule neurons; assay: Glutamate-induced release of [3H] aspartate from cerebellar granule cells; type: cell-based, rat
From the text: Since D-[^3H] aspartate release has been often used as a measure of the functional state of cerebellar granule neurons cultured in vitro and depolarization- or glutamate-evoked aspartate release is a feature progressively aquired by these cells along with neuronal maturation, we decided to test this parameter to further study the biological effects and possible mechanisms used by basilen blue in the prevention of cell death. We find that basilen blue inhibits glutamate-induced release of [^3H] aspartate with an IC50 of about 10 μM. […] Also a cronic exposure of granule neurons for 8 days to 100 μM AMPPNP inhibits by 70-80% the glutamate-evoked release of [^3H] aspartate.
(§1) (FIG. 7) Replicate cerebellar granule cultures at 8 DIV were incubated for 1 min in Locke's solution in the presence of 45 Ca^++ (1 μCi/ml), with or without 100 μM glutamate, and were then assessed for Ca^++ influx. (FIG. 8) Replicate cerebellar granule cultures at 8 DIV were incubated for 5 min in Locke's solution, in the presence of [^3H] D-2,3 aspartic acid (1 μCi/ml, final concentration 40 nM) and were then assessed for aspartate release, in the presence or absence of 100 μM glutamate. Data are expressed as means±SEM (n=3).
(§2) Basilen Blue inhibits release of aspartate and uptake of Ca^++ induced by glutamate in cerebellar granule cells. (FIG. 9) Replicate cerebellar granule cultures at 8 DIV were incubated for 5 min in Locke's solution in the presence of [^3H] D-2,3 aspartic acid (1 μCi/ml, final concentration 40 nM). After two washes, the cultures were then incubated for 1 min in Locke's solution with or without 100 μM glutamate and in the presence of different concentrations of basilen blue. The buffer removed from the cultures during this release phase was collected into vials and counted for radioactivity. The asterisk represents the release of aspartate obtained in the simultaneous presence of 100 μM glutamate and 100 μM caffeine. Cells were dissolved in 0.1 M NaOH and protein concentrations were determined by the method of Bradford, with bovine serum albumin as standard. (FIG. 10) Replicate cerebellar granule cultures at 8 DIV were incubated for 1 min in Locke's solution in the presence of 45 Ca^++ (1 μCi/ml), with our without 100 μM glutamate, and in the simultaneous presence of different concentrations of basilen blue. After two washes with ice-cold 154 mM choline chloride, 2 mM EDTA, the cells were lysed in 0.1 M NaOH and aliquots were collected for measuring Ca^++ influx (by radioactive counting) and protein concentration. The asterisk represents the Ca^++ influx obtained in the simultaneous presence of 100 μM glutamate and 100 μM caffeine. Data are expressed as means±SEM (n=3).

[3] = system: cerebellar granule neurons; assay: Glutamate-evoked Ca2+ uptake in cerebellar granule cells; type: cell-based, rat
Protocol: Glutamate-dependent neurotoxicity is often accompanied also in cerebellar granule neurons with increase in intracellular Ca^2+ via a multistep process. […] Also this value is in accordance with the IC50 found for inhibition of ATP binding, cytotoxicity and aspartate release. The basilen blue-dependent inhibition occurs when Ca^2+ uptake is measured for short (1 min) or for longer times (3, 10, and 25 min). The cronic exposure of granule neurons for 8 days to 100 μM AMPPNP inhibits by 50-70% glutamate-evoked Ca^2+ influx, similarly to the inhibition of cytotoxicity and aspartate release.
as §1, §2

[4] = system: membranes of granule neurons ([3H] ATP binding); assay: Binding of [3H] ATP to cerebellar granule cell membranes; set-up: species or system rat; details: 1 h at 4° C, read-out: IC50 for inhibition of binding of [3H] ATP to membranes
Protocol: (§3) Basilen blue inhibits binding of [^3H] ATP to membranes of granule neurons with an IC50 of about 10 μM, that corresponds to the IC50 that prevents glutamate-evoked cytotoxicity. Binding studies with [^3H]
Basilen Blue inhibits binding of ATP to cerebellar granule cell membranes, but to uptake of aspartate. Membranes were prepared from 8 DIV cerebellar granule ells and 20 μg of protein were incubated with [^3H] ATP (0.5 μCi/ml, final concentration […]) (FIG. 4), in the presence of different concentrations of basilen blue, for 1 h at 4° C. Specific binding is shown and counts represent means±SEM (n=3). The asterisk represents the binding performed in the presence of 100 μM caffeine. In FIG. 5, replicate cerebellar granule cultures at 8 DIV were washed wice and incubated for different times in Locke's solution with [^3H] […] After two washes, cells were dissolved in 0.1 M NaOH and counted for incorporated radioactivity by liquid scintillation counting. […] Protein concentrations were determined by the method of Bradford with ovine serum albumin as standard.
METHODS. […] ATP, the samples (1 ml) were vacuum-filtered through Whatman GF/B glass fiber filters and the filters were immediately washed (3×4 s) with 5 ml of 50 mM Tris-HCl (pH 7.4), air dried and assessed for specifically bound radioactivity by liquid scintillation counting.

[5] = system: intact cells (granule neurons, [3H] ATP binding); assay: Binding of [3H] ATP to intact cells; set-up: species or system rat
Protocol: as §3

[6] = system: cerebellar granule neurons; assay: Uptake of [3H] aspartate by cerebellar granule cultures; type: cell-based, rat; details: same basilen blue treatments as for cytotoxicity
Protocol: The effects of basilen blue on protection from cytotoxicity are linear with time and depend on the modality of somministration of the compound. When basilen blue is added to the cells 10 min after glutamate, and then incubated with granule neurons for only 15 min, it protects from cell death 60-70% of the entire neuronal population; if somministered only for the last 5 min of treatment of the cells with glutamate, basilen blue sustains survival of 25-40% of total neurons. When instead it is added 1-2 min or 30 min or 2 hours after exposure of granule neurons to glutamate (and then incubated with the cells for the next 20 hours) basilen blue protects from cell death respectively 55-70%, 30% and 10% of the total neuronal population. When it is added before (not during or after) exposure of granule neurons to glutamate, basilen blue requires a pretreatment of at least 20-25 hours in order to prevent by 70-80% the cytotoxic action of glutamate. Inhibition of aspartate uptake is not obtained as a consequence of these same treatments.
Basilen Blue inhibits binding of ATP to cerebellar granule cell membranes, but to uptake of aspartate. […] After two washes, cells were dissolved in 0.1 M NaOH and counted for incorporated radioactivity by liquid scintillation counting. […] Protein concentrations were determined by the method of Bradford with ovine serum albumin as standard.

[7] = chronic exposure for 8 days to 100 μM

Nc1ncnc2c1ncn2C1OC(COP(=O)(O)OP(=O)(O)NP(=O)(O)O)C(O)C1O (stereo not drawn) [AMPPNP, 5-adenylylimidodiphosphate]
cellular survival / abolition of the cytotoxic action of glutamate [1]: not effective | inhibition of glutamate-induced cytotoxicity ([1]; cells cultured in continuous presence of 100 μM compound from day 1 (not later than day 2) in vitro): 50-60% | inhibition of glutamate-evoked release of [3H] aspartate [2, 7]: 70-80% | inhibition of glutamate-evoked Ca2+ influx [3, 7]: 50-70%

Cn1c(=O)c2c(ncn2C)n(C)c1=O [Caffeine]
abolition of the cytotoxic action of glutamate ([1]; up to 100 μM): does not abolish

Basilen Blue E 3G
cellular survival / abolition of the cytotoxic action of glutamate [1]: completely sustains cellular survival | IC50 ([1]; 100 μM glutamate, compound present simultaneously, read-out: IC50 for prevention of glutamate-evoked cell death): 10 to 20 µM | total neuronal population protected from cell death ([1]; added 1-2 min after exposure to glutamate): 55-70% | neuronal population protected from cell death ([1]; added 10 min after glutamate, then incubated with neurons for only 15 min): 60-70% | total neuronal population protected from cell death ([1]; added 30 min after exposure to glutamate): 30% | total neuronal population protected from cell death ([1]; added 2 hours after exposure to glutamate): 10% | adhesion and neurites fasciculation ([1]; despite exposure to glutamate, 100 μM basilen blue): preserved | survival of total neurons ([1]; given only for the last 5 min of glutamate treatment): 25-40% | acute response (rapid swelling of the cell body and loss of brightness) ([1]; within the first 5 min of treatment with glutamate, basilen blue added): prevented | IC50 [4]: ~10 µM | inhibition of [3H] ATP binding to intact cells [5]: as effective | IC50 ([2]; 100 μM glutamate, read-out: IC50 for inhibition of glutamate-induced release of [3H] aspartate): ~10 µM | extent of inhibition of glutamate-induced [3H] aspartate release ([2]; release measured for 1, 3, 10, 25 min or in presence of Mg2+): almost complete | basal release of [3H] aspartate ([2]; without glutamate): does not affect | IC50 ([3]; 100 μM glutamate, read-out: IC50 for inhibition of glutamate-evoked Ca2+ uptake): ~10 µM | extent of inhibition of glutamate-evoked Ca2+ uptake ([3]; uptake measured for 1, 3, 10 and 25 min): almost completely abolishes | basal Ca2+ uptake ([3]; without glutamate): not basal | inhibition of aspartate uptake [6]: not obtained

Nc1c(S(=O)(=O)O)cc(Nc2ccc(Nc3nc(Cl)nc(Nc4ccccc4S(=O)(=O)O)n3)c(S(=O)(=O)O)c2)c2c1C(=O)c1ccccc1C2=O [cibacron blue, Cibacron Blue 3GA]
prevention of glutamate-evoked cell death (in words) [1]: effective
